In one data set the test system is CCRF-CEM cells. Put plainly: Flow cytometry analysis, CCRF-CEM cells. The data set is classed as cell-based. The settings on record: 250 nM, 2 h at 4° C. As for the experimental part:
Flow Cytometry Analysis was conducted as follows. Cells were plated in a 35 mm cell culture dish (Corning Incorporated, Corning, N.Y., USA) and grown to around 80% confluency for 24 h before the experiments. Cells were washed twice with 1 mL PBS and then incubated with the prepared aptamer-drug conjugate and LIB-drug conjugate at the concentration of 250 nM for 2 h at 4° C. After incubation, cells were washed with washing buffer three times, dispersed in 80 μL binding buffer, and finally subjected to flow cytometry analysis using a FACScan cytometer (Becton Dickinson Immunocytometry Systems, San Jose, Calif., USA). Fluorescence was determined by counting 30,000 events, and data were analyzed with FlowJo software.
Flow cytometry assays of conjugate 30 (sgc8c-27) with the K562 cell line (left) and the CCRF-CEM cell line are shown in FIGS. 26A and 26B, respectively. Random aptamer sequences conjugated to 27 to create LIB-27 were used as negative control. […] In Similar manner, flow cytometry analysis of MDA-MB-231 cell, PC3 cell, HEK293 cell and HU1545 cell, FIGS. 27A-27D, respectively, after incubated with 32 (AS1411-29) were conducted. AS1411 aptamer was used as positive control, and random library sequences was used as negative control.

In data set [1] the test system is cervical carcinoma (HeLa) cells. The note with it: background; cited from earlier work.
The subject of data set [2] is cis-platin resistant cancer cells. The settings on record: background; cited from earlier work.
The test system of a further data set is CCRF-CEM cell line. Briefly: MTS cell viability assay, CCRF-CEM cell line. The data set is classed as cell-based. The note with it: 4 h incubation then 48 h. Here is the method: All cell lines used in this research were cultured in American Type Culture Collection recommended medium, with 10% fetal bovine serum (Invitrogen, Carlsbad, Calif.) and 0.5 mg/mL penicillin-streptomycin (American Type Culture Collection) at 37° C. under a 5% CO2 atmosphere. CCRF-CEM (T-cell line) and K562 ([…]) were cultured in RPMI 1640 medium; MDA-MB-231 (breast cancer cells were cultured in L-15 medium; DU145 (prostate cancer cell) was cultured in EMEM medium; Hela (cervical cancer cell), HEK293 (human kidney cell) and HU1545v (human untransformed liver cell) were cultured in DMEM medium. Cells were washed before and after incubation with washing buffer [4.5 g/L glucose and 5 mM MgCl2 in Dulbecco's PBS with calcium chloride and magnesium chloride (Sigma-Aldrich)]. Binding buffer was prepared by adding yeast tRNA (0.1 mg/mL; Sigma-Aldrich) and BSA (1 mg/mL; Fisher Scientific) to the washing buffer to reduce background binding. All reagents for buffer preparation and HPLC purification came from Fisher Scientific. […]
A cell viability assay to measure the cytotoxicity of the aptamer-drug conjugate 21 and aptamer-ligand conjugate 28 were performed, as indicated in FIG. 13. […] The assay was allotted 2 h at 37° C. for development, and then the 490 nm absorbance of each well was collected on a Tecan plate 110 reader. […]

The values below come from patent publication US10731164B2, “Aptamer conjugates with N-heterocyclic carbene metal complexes for targeted drug delivery” (University of Florida Research Foundation, Inc., priority 2014, dated 2020).

Turning to “sgc8c: leukemia-specific aptamer 5′-ATCTAACTGCTGCGCCGCCGGGAAAATACTGTACGGTTAGA-3′ (ATCTAACTGCTGCGCCGCCGGGAAAATACTGTACGGTTAGA; listed as DNA, chemistry not fully specified)”, the “fluorescence intensity of cells (flow cytometry)” value with CCRF-CEM cells is “fluorescence intensity increases”.

Regarding `CC(=O)OC[C@H]1O[C@@H]([S-])[C@H](OC(C)=O)[C@@H](OC(C)=O)[C@@H]1OC(C)=O.CCP(CC)CC.[Au+]` [Auranofin], the “activity against HeLa cells in vitro” value in data set [1] is on record as “highly active”. The “effect against cis-platin resistant cancer cells” value in data set [2] is given as “effective”.

“1-(anthracen-9-ylmethyl)-3-(4-N-sgc8c-aptamer-carbamoylbenzyl) benzo[d]imidazolium gold(I) chloride [complex 27]” showed an IC50 in the data set with CCRF-CEM cell line of 31.1 ± 2.11 µM.
